Results: PMC10269561, “Absence of Clinically Meaningful Drug-Drug Interactions with Rezafungin: Outcome of Investigations” (Microbiology Spectrum, 2023)
Numbered stars: 1 amine (or outer) side, 2 acyl side, 3 side chain; on linkers, the order of the positions; unused ones are H or OH. Bridge positions count the residues as written; N and C are the ends. Square brackets hold non-standard residues; d marks the D form. Peptide text beside a SMILES is read from it. * marks the point of attachment. Orn(4R-OH,5R-OCH2CH2NMe3+) = C[N+](C)(C)CCO[C@@H](N[*:3])[C@H](O)C[C@H](N[*:1])C(=O)[*:2]; pTerphenylCO(4''-OnC5H11) = CCCCCOc1ccc(-c2ccc(-c3ccc(C(=O)*)cc3)cc2)cc1; hTyr(3S-OH,4S-OH) = N[C@H](C(=O)O)[C@H](O)[C@@H](O)c1ccc(O)cc1; Pro(3S-OH,4S-Me) = C[C@H]1CN[C@H](C(=O)O)[C@H]1O; Hyp = O=C(O)[C@@H]1C[C@@H](O)CN1

Legend:
[1] = target: T1, human OATP1B1 (Homo sapiens, UniProt Q9Y6L6); assay: NC-152 transporter inhibition, OATP1B1; type: in vitro ADME; details: in vitro cell test system
Excerpt: (§1) Microbiology Spectrum Supplementary materials
(§2) Table S 4Summary of initial in vitro assessments […]
(§3) whether rezafungin can induce CYP isoforms 1A2, 2B6, or 3A4. mRNA expression) of CYP1A2 and CYP2B6, and, in the case of […]
(§4) Abbreviations: ABC = ATP binding cassette; BCRP = breast cancer resistance protein; BSEP = bile salt export pump; CYP = cytochrome P450; MATE = multidrug and toxic compound extrusion; MDCK = Madin-Darby canine kidney; MDR = multidrug resistance protein; mRNA = messenger ribonucleic acid; OAT = organic anion transporter; OATP = organic anion transporter protein; OCT – organic cation transporter; OCTN = organic cation transporter novel; P-gp = P-glycoprotein; SLC = solute carrier.

[2] = target: T2, human OATP1B3 (Homo sapiens, UniProt Q9NPD5); assay: NC-152 transporter inhibition, OATP1B3; type: in vitro ADME
Excerpt: Abbreviations: ABC = ATP binding cassette; BCRP = breast cancer resistance protein; BSEP = bile salt export pump; CYP = cytochrome P450; MATE =
multidrug and toxic compound extrusion; MDCK = Madin-Darby canine kidney; MDR = multidrug resistance protein; mRNA = messenger ribonucleic acid;
OAT = organic anion transporter; OATP = organic anion transporter protein; OCT – organic cation transporter; OCTN = organic cation transporter novel; P-gp =
P-glycoprotein; SLC = solute carrier.

[3] = target: CYP2C9 (Homo sapiens, UniProt P11712); assay: NC-012 CYP450 inhibition screening, recombinant CYP2C9; type: in vitro ADME; details: 10 μM, fluorogenic substrate, recombinant human CYP
Excerpt: as §1, §2, §3, §4

[4] = Study 1 safety and tolerability (TEAEs); type: in vivo, human
Protocol: After screening, subjects were admitted to the clinical research unit (CRU) prior to the first dose of rezafungin (from day −22) and were discharged from the CRU on day 22. Nine oral substrate drugs were administered as part of a cocktail containing two or more drugs once before and once after receiving rezafungin on a schedule designed to allow the washout of the drugs in the cocktail between doses and limit interactions with other drugs (Fig. 4A). […] A loading dose of rezafungin for injection (600 mg) was administered over 1 h on day 1, followed by two once-weekly 400-mg doses over 1 h on days 10 and 15. Due to a short delay in the availability of the investigation study drug, the second once-weekly dose of rezafungin and the second set of oral substrate drugs were administered on day 10 instead of day 8, although the time between doses remained sufficient for all originally planned PK samplings through 96 h postdose and for the adequate washout of the substrate drugs. The total duration of treatment was up to 89 days, including 45 days of screening and 44 days of treatment in the CRU.
as §1
Table S 2Summary of t reatment-emergent adverse e vents for Study 1
System Organ Class Safety Population Adverse Event Severity(N=26), n Rezafungin Safety Population (N=26), n
Adverse Event Mild Moderate Severe Mild Moderate Severe […]

[5] = cited from earlier work
Excerpt: Rezafungin is a novel echinocandin currently in development for the treatment of candidemia and invasive candidiasis as well as for prophylaxis against fungal diseases caused by Candida, Aspergillus, and Pneumocystis species in people undergoing allogeneic blood and marrow transplantation ([33][–][35]). […] It has als ...

[6] = Precipitation in human liver microsome incubations (NC-153); type: physicochemical
Excerpt: as §1, §2, §3, §4

[7] = target: T3, CYP2C8 (Homo sapiens, UniProt P10632); assay: NC-153 time-dependent inhibition in human liver microsomes, CYP2C8; type: in vitro ADME; design: in human liver microsomal preparations; from tissue; host or cells: human liver microsomes; details: 0.1 to 25 μM
T3 sequence (P10632 1-490): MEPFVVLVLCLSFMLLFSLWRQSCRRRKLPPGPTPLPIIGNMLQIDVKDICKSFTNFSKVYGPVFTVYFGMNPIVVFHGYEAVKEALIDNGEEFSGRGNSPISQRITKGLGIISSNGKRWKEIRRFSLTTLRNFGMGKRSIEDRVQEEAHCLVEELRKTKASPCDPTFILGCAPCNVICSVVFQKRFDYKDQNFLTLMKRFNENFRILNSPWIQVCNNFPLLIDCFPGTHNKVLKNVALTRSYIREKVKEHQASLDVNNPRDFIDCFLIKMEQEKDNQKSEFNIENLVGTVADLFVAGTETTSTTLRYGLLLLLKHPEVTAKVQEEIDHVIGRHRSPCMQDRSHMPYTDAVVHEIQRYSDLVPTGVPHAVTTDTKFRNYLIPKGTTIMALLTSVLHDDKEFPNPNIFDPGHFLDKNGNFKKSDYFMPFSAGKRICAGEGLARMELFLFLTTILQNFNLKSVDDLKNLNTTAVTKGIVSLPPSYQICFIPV
Excerpt: as §1, §2, §3, §4

[8] = target: CYP2B6 (Homo sapiens, UniProt P20813); assay: NC-012 CYP450 inhibition screening, recombinant CYP2B6; type: in vitro ADME; details: 10 μM, fluorogenic substrate, recombinant human CYP
Excerpt: as §1, §2, §3, §4

[9] = target: OCTN2 (Homo sapiens, UniProt O76082); assay: NC-160 substrate interaction, OCTN2; type: in vitro ADME; details: uptake SLC transporter
Excerpt: as §1, §2, §3, §4

[10] = target: T1, human OATP1B1; assay: NC-052 OATP1B1 substrate study in transiently transfected HEK293 cells; type: in vitro ADME
Excerpt: as §1, §2, §3, §4

[11] = target: T2, human OATP1B3; assay: NC-052 OATP1B3 substrate study in transiently transfected HEK293 cells; type: in vitro ADME
Excerpt: as §1, §2, §3, §4

[12] = target: CYP2D6 (Homo sapiens, UniProt P10635); assay: NC-012 CYP450 inhibition screening, recombinant CYP2D6; type: in vitro ADME; details: 10 μM, fluorogenic substrate, recombinant human CYP
Excerpt: as §1, §2, §3, §4

[13] = target: human OAT3 (Homo sapiens, UniProt Q8TCC7); assay: NC-152 transporter inhibition, OAT3; type: in vitro ADME; details: in vitro cell test system
Excerpt: as §1, §2, §3, §4

[14] = target: CYP1A2 (Homo sapiens, UniProt P05177); assay: NC-012 CYP450 inhibition screening, recombinant CYP1A2; type: in vitro ADME; details: 10 μM, fluorogenic substrate, recombinant human CYP
Excerpt: as §1, §2, §3, §4

T2 sequence (Q9NPD5 whole entry): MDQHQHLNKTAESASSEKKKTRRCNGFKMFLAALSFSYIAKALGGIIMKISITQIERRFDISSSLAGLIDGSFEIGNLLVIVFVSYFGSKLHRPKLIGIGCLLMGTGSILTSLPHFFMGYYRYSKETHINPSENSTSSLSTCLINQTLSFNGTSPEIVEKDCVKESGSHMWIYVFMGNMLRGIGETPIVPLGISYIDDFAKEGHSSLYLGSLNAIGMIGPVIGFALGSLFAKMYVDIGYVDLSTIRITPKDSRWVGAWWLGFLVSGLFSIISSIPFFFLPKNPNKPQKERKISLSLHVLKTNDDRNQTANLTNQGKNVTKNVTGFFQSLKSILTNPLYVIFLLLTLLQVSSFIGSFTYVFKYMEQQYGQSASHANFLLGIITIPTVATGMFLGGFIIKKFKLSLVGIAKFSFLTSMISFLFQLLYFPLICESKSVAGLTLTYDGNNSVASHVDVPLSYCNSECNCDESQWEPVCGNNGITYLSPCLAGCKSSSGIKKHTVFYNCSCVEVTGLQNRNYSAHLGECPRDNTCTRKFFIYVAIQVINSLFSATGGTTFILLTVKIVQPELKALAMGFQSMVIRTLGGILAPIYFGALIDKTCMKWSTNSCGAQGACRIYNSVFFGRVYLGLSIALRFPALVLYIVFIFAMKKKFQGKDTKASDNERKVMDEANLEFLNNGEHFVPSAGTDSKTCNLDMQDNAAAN
T1 sequence (Q9Y6L6 whole entry): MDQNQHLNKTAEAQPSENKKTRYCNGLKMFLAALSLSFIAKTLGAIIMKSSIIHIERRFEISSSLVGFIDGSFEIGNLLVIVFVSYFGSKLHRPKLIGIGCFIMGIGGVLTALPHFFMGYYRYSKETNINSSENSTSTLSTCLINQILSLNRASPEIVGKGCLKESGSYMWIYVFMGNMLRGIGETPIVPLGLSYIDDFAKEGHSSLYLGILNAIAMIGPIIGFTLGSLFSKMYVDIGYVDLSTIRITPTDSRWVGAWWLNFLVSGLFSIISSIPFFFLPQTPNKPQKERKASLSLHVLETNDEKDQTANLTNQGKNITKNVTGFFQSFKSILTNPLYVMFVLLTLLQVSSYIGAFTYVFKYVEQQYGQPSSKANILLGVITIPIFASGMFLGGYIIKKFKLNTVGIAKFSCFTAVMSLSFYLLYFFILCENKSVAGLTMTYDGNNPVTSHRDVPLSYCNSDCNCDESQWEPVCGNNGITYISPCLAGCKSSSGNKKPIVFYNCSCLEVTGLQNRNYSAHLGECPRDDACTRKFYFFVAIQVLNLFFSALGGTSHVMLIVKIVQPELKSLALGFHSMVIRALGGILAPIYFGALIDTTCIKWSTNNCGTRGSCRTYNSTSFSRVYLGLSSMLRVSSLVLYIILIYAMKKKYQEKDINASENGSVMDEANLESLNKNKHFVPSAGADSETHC
Sequence of OCTN2 (O76082 whole entry): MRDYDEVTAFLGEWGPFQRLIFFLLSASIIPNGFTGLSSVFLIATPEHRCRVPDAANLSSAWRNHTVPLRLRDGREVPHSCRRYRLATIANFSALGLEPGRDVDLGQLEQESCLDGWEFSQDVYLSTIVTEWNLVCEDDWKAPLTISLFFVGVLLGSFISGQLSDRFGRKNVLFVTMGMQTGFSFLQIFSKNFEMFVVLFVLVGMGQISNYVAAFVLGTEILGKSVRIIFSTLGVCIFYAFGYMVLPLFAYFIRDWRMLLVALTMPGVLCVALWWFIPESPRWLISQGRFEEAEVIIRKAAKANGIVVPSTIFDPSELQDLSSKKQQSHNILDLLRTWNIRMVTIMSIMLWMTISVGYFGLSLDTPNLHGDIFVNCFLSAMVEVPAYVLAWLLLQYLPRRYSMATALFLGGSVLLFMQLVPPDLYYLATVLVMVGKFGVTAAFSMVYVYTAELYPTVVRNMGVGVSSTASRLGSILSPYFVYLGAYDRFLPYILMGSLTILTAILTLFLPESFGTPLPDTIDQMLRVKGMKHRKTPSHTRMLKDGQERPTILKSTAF
Sequence of CYP2B6 (P20813 whole entry): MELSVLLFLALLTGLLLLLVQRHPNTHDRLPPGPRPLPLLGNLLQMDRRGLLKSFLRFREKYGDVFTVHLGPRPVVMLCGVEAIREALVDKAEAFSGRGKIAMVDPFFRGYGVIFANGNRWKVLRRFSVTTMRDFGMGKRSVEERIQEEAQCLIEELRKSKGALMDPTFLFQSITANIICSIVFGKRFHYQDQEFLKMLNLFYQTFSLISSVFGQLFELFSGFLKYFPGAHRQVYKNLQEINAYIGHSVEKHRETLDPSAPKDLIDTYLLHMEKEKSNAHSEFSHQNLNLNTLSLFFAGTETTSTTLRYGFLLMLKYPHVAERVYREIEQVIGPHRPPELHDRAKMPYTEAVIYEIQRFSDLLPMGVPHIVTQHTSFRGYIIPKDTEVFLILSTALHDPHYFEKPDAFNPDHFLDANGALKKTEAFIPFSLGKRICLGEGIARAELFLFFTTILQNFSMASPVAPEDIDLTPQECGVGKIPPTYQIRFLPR
Sequence of CYP2C9 (P11712 whole entry): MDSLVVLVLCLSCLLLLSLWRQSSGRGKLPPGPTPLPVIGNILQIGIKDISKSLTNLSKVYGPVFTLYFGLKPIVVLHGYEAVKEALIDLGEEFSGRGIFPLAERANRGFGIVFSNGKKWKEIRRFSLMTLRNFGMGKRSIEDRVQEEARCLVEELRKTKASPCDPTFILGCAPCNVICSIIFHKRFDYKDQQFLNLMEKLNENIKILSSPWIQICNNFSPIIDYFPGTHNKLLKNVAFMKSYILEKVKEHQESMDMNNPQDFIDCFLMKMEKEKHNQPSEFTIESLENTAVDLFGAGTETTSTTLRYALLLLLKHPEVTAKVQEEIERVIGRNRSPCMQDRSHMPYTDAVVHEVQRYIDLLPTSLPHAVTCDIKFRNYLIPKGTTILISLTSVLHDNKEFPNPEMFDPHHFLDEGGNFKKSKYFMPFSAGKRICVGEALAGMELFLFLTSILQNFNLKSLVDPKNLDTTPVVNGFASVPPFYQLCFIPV
Sequence of human OAT3 (Q8TCC7 whole entry): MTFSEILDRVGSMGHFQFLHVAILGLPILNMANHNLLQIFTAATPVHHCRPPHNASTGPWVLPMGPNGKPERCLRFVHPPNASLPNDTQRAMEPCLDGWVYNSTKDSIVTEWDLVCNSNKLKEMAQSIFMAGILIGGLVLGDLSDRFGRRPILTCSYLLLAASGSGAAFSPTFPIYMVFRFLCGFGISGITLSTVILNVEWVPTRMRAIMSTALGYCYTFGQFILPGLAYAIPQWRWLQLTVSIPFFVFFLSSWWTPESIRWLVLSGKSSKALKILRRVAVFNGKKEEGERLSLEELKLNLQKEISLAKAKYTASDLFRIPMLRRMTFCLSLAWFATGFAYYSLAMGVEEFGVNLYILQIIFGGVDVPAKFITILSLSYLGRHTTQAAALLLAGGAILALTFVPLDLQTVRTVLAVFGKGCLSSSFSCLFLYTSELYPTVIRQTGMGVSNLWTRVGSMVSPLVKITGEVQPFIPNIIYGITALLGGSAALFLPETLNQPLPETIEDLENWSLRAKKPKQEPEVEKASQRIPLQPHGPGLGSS
Sequence of CYP2D6 (P10635 whole entry): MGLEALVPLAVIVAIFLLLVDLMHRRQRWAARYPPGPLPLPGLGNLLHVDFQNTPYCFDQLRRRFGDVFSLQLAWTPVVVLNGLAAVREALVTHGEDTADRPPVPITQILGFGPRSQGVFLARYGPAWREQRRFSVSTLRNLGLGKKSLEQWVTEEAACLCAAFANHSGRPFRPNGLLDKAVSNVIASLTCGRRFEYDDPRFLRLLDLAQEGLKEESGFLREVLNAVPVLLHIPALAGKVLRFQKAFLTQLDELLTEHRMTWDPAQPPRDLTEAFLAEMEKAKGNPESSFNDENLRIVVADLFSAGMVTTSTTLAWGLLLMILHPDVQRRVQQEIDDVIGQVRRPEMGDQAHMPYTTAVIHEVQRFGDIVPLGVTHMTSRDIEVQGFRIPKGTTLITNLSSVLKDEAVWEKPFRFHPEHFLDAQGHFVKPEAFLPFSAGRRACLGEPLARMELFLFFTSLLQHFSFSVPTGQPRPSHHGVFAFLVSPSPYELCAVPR
Sequence of CYP1A2 (P05177 whole entry): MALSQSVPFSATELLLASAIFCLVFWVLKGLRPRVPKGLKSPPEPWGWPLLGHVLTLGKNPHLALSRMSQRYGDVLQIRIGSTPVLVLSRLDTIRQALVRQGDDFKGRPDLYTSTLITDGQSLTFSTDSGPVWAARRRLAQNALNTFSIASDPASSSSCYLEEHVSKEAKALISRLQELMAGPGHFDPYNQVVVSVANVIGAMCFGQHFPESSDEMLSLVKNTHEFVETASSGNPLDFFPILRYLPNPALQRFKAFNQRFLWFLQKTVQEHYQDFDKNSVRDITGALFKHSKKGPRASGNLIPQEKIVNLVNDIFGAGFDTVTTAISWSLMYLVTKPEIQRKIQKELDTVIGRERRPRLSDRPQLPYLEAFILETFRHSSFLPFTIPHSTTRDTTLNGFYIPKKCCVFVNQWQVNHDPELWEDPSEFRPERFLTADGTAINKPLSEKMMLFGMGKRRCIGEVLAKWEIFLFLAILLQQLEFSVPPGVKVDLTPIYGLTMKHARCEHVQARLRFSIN

## CCCCCOc1ccc(-c2ccc(-c3ccc(C(=O)N[C@H]4C[C@@H](O)[C@@H](OCC[N+](C)(C)C)NC(=O)[C@@H]5[C@@H](O)[C@@H](C)CN5C(=O)[C@H]([C@@H](C)O)NC(=O)[C@H]([C@H](O)[C@@H](O)c5ccc(O)cc5)NC(=O)[C@@H]5C[C@@H](O)CN5C(=O)[C@H]([C@@H](C)O)NC4=O)cc3)cc2)cc1 [Rezafungin] ({pTerphenylCO(4''-OnC5H11)}-[Orn(4R-OH,5R-OCH2CH2NMe3+)]T[Hyp][hTyr(3S-OH,4S-OH)]T[Pro(3S-OH,4S-Me)]; lactam 1-C)
[1]
  inhibitor of probe substrate transport mediated via OATP1B1: determined to be an inhibitor
[2]; in vitro cell test system, NC-152
  inhibitor of probe substrate transport mediated via OATP1B3: determined to be an inhibitor
[2]; initial in vitro studies, read-out: IC50, OATP-1B3 uptake transporter (moderate inhibition)
  IC50: > 6 µM
[3]
  inhibition of CYP2C9: Minimal inhibition
[4]; Study 1
  serious TEAEs, deaths, discontinuations due to a TEAE: no serious TEAEs or deaths or discontinuations due to a TEAE
[4]; once-weekly i.v. infusions, 600-mg loading dose followed by two 400-mg maintenance doses
  tolerability: generally well tolerated
[5]
  half-life: around 130 h
[5]; incubated in phosphate-buffered saline, no evidence of reactive intermediate formation
  chemical stability: chemically stable
[5]; preclinical data
  metabolic stability in hepatocytes: metabolically stable
  metabolic stability in liver microsomes: metabolically stable
[6]
  concentration at which precipitation occurred: ≥ 25 µM
[7]
  time-dependent inhibitor of CYP2C8: not a time-dependent inhibitor
[8]
  inhibition of CYP2B6: Minimal inhibition
[9]
  substrate of OCTN2: not a substrate
[10]
  substrate of OATP1B1: not to be a substrate
  uptake ratio, OATP1B1: < 2
[11]
  substrate of OATP1B3: not to be a substrate
  uptake ratio, OATP1B3: < 2
[12]
  inhibition of CYP2D6: Minimal inhibition
[13]
  inhibitor of probe substrate transport mediated via OAT3: not
[14]
  inhibition of CYP1A2: Minimal inhibition
